“And” between values parts separate entries of the source, which are not always exact repeats. Equal entries are not always repeated. The source made the active and inactive calls. The calls are words filed in the database; no cut-off is given here.
Legend:
Mus musculus [1] = test: Anticonvulsant activity in Kunming mouse assessed as reduction in ScPTZ-induced seizure at 300 mg/kg, ip administered 0.25 to 2 hrs before ScPTZ stimulation relative to control; type: functional; design: scale not given: the % may be the effect or the level left
Mus musculus [2] = test: Anticonvulsant activity in Kunming mouse assessed as MES-induced hind limb extension at 100 mg/kg, ip administered 3 hrs before MES stimulation; type: functional, organism-based
Mus musculus [3] = test: Anticonvulsant activity in Kunming mouse assessed as MES-induced hind limb extension at 100 mg/kg, ip administered 0. 5 to 2 hrs before MES stimulation; type: functional, organism-based
Mus musculus [4] = test: Anticonvulsant activity in Kunming mouse assessed as reduction in Sc3-MP-induced seizure ip dosed measured at 0.5 hrs before Sc3-MP stimulation; type: functional
Mus musculus [5] = test: Anticonvulsant activity in Kunming mouse assessed as reduction in ScPTZ-induced clonic seizure at 100 mg/kg, ip administered 0.5 hrs before ScPTZ stimulation relative to control; type: functional; design: scale not given: the % may be the effect or the level left
Mus musculus [6] = test: Anticonvulsant activity in Kunming mouse assessed as reduction in Sc3-MP-induced clonic seizure rate at 300 mg/kg, ip administered 0.5 hrs before Sc3-MP stimulation relative to control; type: functional; design: scale not given: the % may be the effect or the level left
Mus musculus [7] = test: Anticonvulsant activity in Kunming mouse assessed as MES-induced hind limb extension at 100 mg/kg, ip administered 0. 5 to 4 hrs before MES stimulation relative to control; type: functional
Mus musculus [8] = test: Anticonvulsant activity in Kunming mouse assessed as reduction in ScPTZ-induced clonic seizure at 300 mg/kg, ip administered 0.5 hrs before ScPTZ stimulation relative to control; type: functional; design: scale not given: the % may be the effect or the level left
Mus musculus [9] = test: Anticonvulsant activity in Kunming mouse assessed as MES-induced hind limb extension at 50 mg/kg, ip administered 0.5 to 4 hrs before MES stimulation relative to control; type: functional
[10] = (§1) Protective index, ratio of TD50 for neurotoxicity against ip dosed Kunming mouse assessed as time remained in rod measured at 0.5 hrs by rotarod test to ED50 for anticonvulsant activity in ip dosed Kunming mouse assessed as reduction in ScPTZ-induced seizure administered 0.5 hrs before ScPTZ stimulation; type: toxicity, organism-based; settings: in vivo, read-out: PI
[11] = Neurotoxicity against Kunming mouse assessed as time remained in rod at 100 mg/kg, ip administered 0.5 to 2 hrs by rotarod test; type: toxicity, organism-based; settings: in vivo
Mus musculus [12] = test: Anticonvulsant activity in Kunming mouse assessed as reduction in Sc3-MP-induced tonic seizure rate at 300 mg/kg, ip administered 0.5 hrs before Sc3-MP stimulation relative to control; type: functional; design: scale not given: the % may be the effect or the level left
Mus musculus [13] = test: Anticonvulsant activity in ip dosed Kunming mouse assessed as reduction in ScPTZ-induced seizure administered 0.5 hrs before ScPTZ stimulation; type: functional
Mus musculus [14] = test: Anticonvulsant activity in Kunming mouse assessed as reduction in ScPTZ-induced seizure at 100 mg/kg, ip administered 0.5 hrs before ScPTZ stimulation relative to control; type: functional; design: scale not given: the % may be the effect or the level left
Mus musculus [15] = test: Anticonvulsant activity in ip dosed Kunming mouse assessed as MES-induced hind limb extension administered 0.5 hrs before MES stimulation; type: functional
Mus musculus [16] = test: […] activity in ip dosed Kunming mouse assessed as reduction in formalin-induced paw licking administered 0.5 hrs before formalin stimulation; type: functional
Mus musculus [17] = test: Anticonvulsant activity in Kunming mouse assessed as reduction in ScPTZ-induced tonic seizure rate at 100 mg/kg, ip administered 0.5 hrs before ScPTZ stimulation relative to control; type: functional; design: scale not given: the % may be the effect or the level left
Homo sapiens [18] = organism: Homo sapiens; test: Inhibition of human LDH1 at 0.5 mM using sodium pyruvate as substrate by UV-VIS spectrophotometry method relative to control
Mus musculus [19] = test: Anticonvulsant activity in Kunming mouse assessed as reduction in ScPTZ-induced tonic seizure rate at 300 mg/kg, ip administered 0.5 hrs before ScPTZ stimulation relative to control; type: functional; design: scale not given: the % may be the effect or the level left
[20] = as §1, with “Sc3-MP-induced” for “ScPTZ-induced”, “Sc3-MP” for “ScPTZ”; type: toxicity, organism-based; settings: in vivo, read-out: PI
[21] = as §1, with “formalin-induced paw licking” for “ScPTZ-induced seizure”, “formalin” for “ScPTZ”; type: toxicity, organism-based; settings: in vivo, read-out: PI
Mus musculus [22] = test: Anticonvulsant activity in Kunming mouse assessed as reduction in ScPTZ-induced seizure at 100 mg/kg, ip administered 0.25 to 2 hrs before ScPTZ stimulation relative to control; type: functional
Mus musculus [23] = test: Anticonvulsant activity in Kunming mouse assessed as reduction in ScPTZ-induced seizure at 100 mg/kg, ip administered 1 hr relative to control; type: functional; design: scale not given: the % may be the effect or the level left
[24] = Protective index, ratio of TD50 for neurotoxicity against ip dosed Kunming mouse assessed as time remained in rod measured at 0.5 hrs by rotarod test to ED50 for anticonvulsant activity in ip dosed Kunming mouse assessed as MES-induced hind limb extension administered 0.5 hrs; type: toxicity, organism-based; settings: in vivo, read-out: PI
[25] = Neurotoxicity against ip dosed Kunming mouse assessed as time remained in rod measured at 0.5 hrs by rotarod test; type: toxicity, organism-based; settings: in vivo
Mus musculus [26] = test: Anticonvulsant activity in Kunming mouse assessed as reduction in Sc3-MP-induced seizure at 300 mg/kg, ip administered 0.25 to 2 hrs before Sc3-MP stimulation relative to control; type: functional; design: scale not given: the % may be the effect or the level left
Homo sapiens [27] = organism: Homo sapiens; test: Inhibition of human LDH5 at 0.5 mM using sodium pyruvate as substrate by UV-VIS spectrophotometry method relative to control
Homo sapiens [28] = organism: Homo sapiens; test: Inhibition of human LDH1 at 2 mM using sodium pyruvate as substrate by UV-VIS spectrophotometry method relative to control
[29] = biological target: GABA-A receptor; alpha-1/beta-2/gamma-2 (Homo sapiens) (UniProt P14867+P47870+P18507); test: Agonist activity at GABA alpha1beta2gamma2 receptor in human HEK293T at 3.3 to 300 uM at -50 mV holding potential by whole cell voltage clamp assay relative to control; type: protein-complex assay
Homo sapiens [30] = organism: Homo sapiens; test: Inhibition of human LDH5 at 2 mM using sodium pyruvate as substrate by UV-VIS spectrophotometry method relative to control
[31] = biological target: T1, GABA-A receptor; alpha-1/beta-2/gamma-2 (Homo sapiens, UniProt P14867+P18507+P47870); test: Agonist activity at GABA alpha1beta2gamma2 receptor in human HEK293T at -50 mV holding potential by whole cell voltage clamp assay; type: protein-complex assay
T1 sequence (P14867 whole entry): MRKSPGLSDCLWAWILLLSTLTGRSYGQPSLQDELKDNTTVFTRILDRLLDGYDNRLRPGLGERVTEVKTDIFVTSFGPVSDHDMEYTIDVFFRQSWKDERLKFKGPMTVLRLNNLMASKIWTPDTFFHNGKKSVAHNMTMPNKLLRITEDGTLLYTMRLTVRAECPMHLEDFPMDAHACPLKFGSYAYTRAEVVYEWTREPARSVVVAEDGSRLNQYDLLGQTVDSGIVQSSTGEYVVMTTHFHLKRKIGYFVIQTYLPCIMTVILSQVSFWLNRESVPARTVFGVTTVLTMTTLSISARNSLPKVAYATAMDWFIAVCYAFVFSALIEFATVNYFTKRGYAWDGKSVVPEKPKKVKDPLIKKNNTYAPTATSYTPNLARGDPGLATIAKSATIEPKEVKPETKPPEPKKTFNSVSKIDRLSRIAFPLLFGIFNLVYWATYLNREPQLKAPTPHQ
T1 sequence (P47870 whole entry): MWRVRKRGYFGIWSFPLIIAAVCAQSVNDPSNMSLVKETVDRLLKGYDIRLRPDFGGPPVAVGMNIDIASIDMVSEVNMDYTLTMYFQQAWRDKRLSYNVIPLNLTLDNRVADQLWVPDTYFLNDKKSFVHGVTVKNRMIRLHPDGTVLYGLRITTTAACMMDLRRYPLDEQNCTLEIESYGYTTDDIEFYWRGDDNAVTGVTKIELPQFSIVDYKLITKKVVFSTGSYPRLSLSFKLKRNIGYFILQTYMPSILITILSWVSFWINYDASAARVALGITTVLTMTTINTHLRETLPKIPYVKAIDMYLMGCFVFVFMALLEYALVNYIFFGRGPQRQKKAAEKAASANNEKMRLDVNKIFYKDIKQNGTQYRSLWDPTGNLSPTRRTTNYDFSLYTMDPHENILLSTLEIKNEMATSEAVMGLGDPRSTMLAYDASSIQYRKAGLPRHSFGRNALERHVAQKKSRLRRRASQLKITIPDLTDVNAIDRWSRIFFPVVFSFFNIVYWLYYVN
T1 sequence (P18507 whole entry): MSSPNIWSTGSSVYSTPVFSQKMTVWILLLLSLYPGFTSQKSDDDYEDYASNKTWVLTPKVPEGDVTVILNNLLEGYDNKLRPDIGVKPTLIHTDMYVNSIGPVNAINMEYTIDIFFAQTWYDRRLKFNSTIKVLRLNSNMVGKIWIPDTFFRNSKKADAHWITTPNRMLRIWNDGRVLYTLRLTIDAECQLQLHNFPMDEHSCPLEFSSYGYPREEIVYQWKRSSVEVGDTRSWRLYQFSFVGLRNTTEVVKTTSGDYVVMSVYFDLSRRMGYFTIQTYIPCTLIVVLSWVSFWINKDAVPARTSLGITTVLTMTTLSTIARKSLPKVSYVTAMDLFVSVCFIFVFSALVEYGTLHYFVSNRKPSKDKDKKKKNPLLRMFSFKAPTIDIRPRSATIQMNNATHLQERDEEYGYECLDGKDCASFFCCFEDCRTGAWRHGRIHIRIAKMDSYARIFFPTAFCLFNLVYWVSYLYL

Mus musculus [32] = test: Anticonvulsant activity in Kunming mouse assessed as MES-induced hind limb extension at 50 mg/kg, ip administered 0.5 and 2 hrs before MES stimulation relative to control; type: functional

| SMILES | Activity (Mus musculus [1]) | Activity (Mus musculus [3]) | ED50 (Mus musculus [4]) | Activity (Mus musculus [5]) | Activity (Mus musculus [6]) | Activity (Mus musculus [7]) | Activity (Mus musculus [8]) | selectivity ratio at 0.5 h [10] | Activity [11] | Activity (Mus musculus [12]) | ED50 (Mus musculus [13]) | ED50 (Mus musculus [15]) | ED50 (Mus musculus [16]) | Activity (Mus musculus [17]) | inhibition (Homo sapiens [18]) | Activity (Mus musculus [19]) | selectivity ratio at 0.5 h [20] | selectivity ratio at 0.5 h [21] | Activity (Mus musculus [22]) | selectivity ratio at 0.5 h [24] | also measured |
| --- | --- | --- | --- | --- | --- | --- | --- | --- | --- | --- | --- | --- | --- | --- | --- | --- | --- | --- | --- | --- | --- |
| COc1ccc(/C=C/C(=O)OC/C=C/c2cc(OC)c(OC)cc2OC)cc1 | 50% | Active | > 300 mg/kg and > 780 µmol/kg | 100% | 100% | 25 - 100% | 100% | > 4.1 | Non-Toxic | 100% | 244 mg/kg and 634 µmol/kg | 70.6 mg/kg and 184 µmol/kg | 122 mg/kg and 317 µmol/kg | 100% | inactive | 0% | 3.3 | > 8.2 | inactive | > 14.2 | Activity (Mus musculus [2]): Active; Activity (Mus musculus [9]): 50%; Activity (Mus musculus [14]): 100%; Activity (Mus musculus [23]): 75%; TD50 at 0.5 h [25]: > 1000 mg/kg and > 2600 µmol/kg; Activity (Mus musculus [26]): 0%; inhibition (Homo sapiens [27]): inactive |
| CC(C)(C)C(O)/C=C/c1ccc2c(c1)OCO2 (configuration not stated) [STIRIPENTOL] |  | Active |  |  |  |  |  |  | Non-Toxic |  |  |  |  |  | inactive |  |  |  |  |  | inhibition (Homo sapiens [28]): 7 to 10%; %max [29]: 310%; inhibition (Homo sapiens [30]): 7 to 10%; EC50 [31]: 46 µM; inhibition (Homo sapiens [27]): inactive |
| COc1cc(OC)c(OC)cc1/C=C/COC(=O)/C=C/c1cc(OC)c(OC)cc1OC | 50% | Active | > 300 mg/kg and > 675 µmol/kg | 100% | 100% | 25 - 100% | 100% | 5 | Non-Toxic | 75% | > 200 mg/kg and 450 µmol/kg to 675 µmol/kg | 165 µmol/kg and 73.5 mg/kg | 180 to 225 µmol/kg | 100% |  | 25% | 3.3 | 12.5 | inactive | > 13.6 | Activity (Mus musculus [32]): inactive; TD50 at 0.5 h [25]: > 2250 µmol/kg and > 1000 mg/kg; Activity (Mus musculus [26]): 0% |

Reference: ChEMBL document CHEMBL4311969, “Polygala tenuifolia-Acori tatarinowii herbal pair as an inspiration for substituted cinnamic α-asaronol esters: Design, synthesis, anticonvulsant activity, and inhibition of lactate dehydrogenase study” (Eur J Med Chem, 2019)
